Source: paper PMC6061170, “Synthesis and biological investigations of 3β-aminotropane arylamide derivatives with atypical antipsychotic profile” (Medicinal Chemistry Research, 2018)
Several values for one entry are separate records, joined by “and”; a condition that tells them apart may be missing. Equal values may be shown once. Where a name gives a salt, the structure may show the parent alone. Read-outs that look alike come from different tables or passages of the source.

Key:
dopamine D2 receptors = dopamine D2 receptors (Rattus norvegicus, UniProt P61169); assay: Radioligand binding assay, D2 receptors
[1] = biological target: T1, serotonin 5-HT1A receptors (Rattus norvegicus, UniProt P19327); assay: Radioligand binding assay, 5-HT1A receptors
T1 construct: from tissue; host or cells: rat brain tissues
T1 sequence (P19327 1-422): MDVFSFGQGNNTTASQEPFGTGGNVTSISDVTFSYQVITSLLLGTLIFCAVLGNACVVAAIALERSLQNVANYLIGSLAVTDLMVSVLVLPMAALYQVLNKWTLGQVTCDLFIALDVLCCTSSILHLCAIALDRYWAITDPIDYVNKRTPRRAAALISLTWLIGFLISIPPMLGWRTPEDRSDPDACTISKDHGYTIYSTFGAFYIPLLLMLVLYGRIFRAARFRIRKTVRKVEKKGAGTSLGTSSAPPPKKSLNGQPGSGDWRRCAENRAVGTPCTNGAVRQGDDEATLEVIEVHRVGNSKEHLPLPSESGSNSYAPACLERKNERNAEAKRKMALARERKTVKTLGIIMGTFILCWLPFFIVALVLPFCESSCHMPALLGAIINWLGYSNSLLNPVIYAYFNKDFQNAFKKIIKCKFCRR
Method: All compounds were tested for their affinities for 5-HT1A, 5-HT2A, and D2 receptors according to previously described procedures (Stefanowicz et al. [2016]).
Competition binding studies were performed according to a previously described procedure in rat brain tissues (Stefanowicz et al. [2016]).

[2] = biological target: T2, serotonin 5-HT2A receptors (Rattus norvegicus, UniProt P14842); assay: Radioligand binding assay, 5-HT2A receptors
T2 construct: from tissue; host or cells: rat brain tissues

CD-1 mice [3] = assay: Spontaneous locomotor activity; assay type: in vivo
Albino Swiss mice [4] = assay: Four-plate test
Albino Swiss mice [5] = assay: Forced swim test; settings: last 4 min of session
CD-1 mice [6] = assay: MK-801-induced hyperlocomotor activity
CD-1 mice [7] = assay: d-Amphetamine-induced hyperlocomotor activity; settings: for decrease of locomotor hyperactivity vs. respective d-amphetamine group: doses of 5 and 10 mg/kg i.p.
[8] = rat brain tissues, read-out: 5-HT1A IC50 [nM] ± SEM
[9] = rat brain tissues, read-out: 5-HT2A IC50 [nM] ± SEM
[10] = rat brain tissues, read-out: 5-HT2A Ki [nM] ± SEM
[11] = 1.25 mg/kg i.p. 30 min before test
[12] = 2.5 mg/kg i.p. 30 min before test
[13] = 5 mg/kg i.p. 30 min before test
[14] = 10 mg/kg i.p. 30 min before test
[15] = compound 5 mg/kg i.p. 30 min + MK-801 0.2 mg/kg
[16] = compound 5 mg/kg i.p. + d-amphetamine 2.5 mg/kg s.c.
[17] = compound 10 mg/kg i.p. + d-amphetamine 2.5 mg/kg s.c.
[18] = rat brain tissues, read-out: D2 IC50 [nM] ± SEM
[19] = rat brain tissues, read-out: D2 Ki [nM] ± SEM

dopamine D2 receptors, sequence (P61169 1-415 isoform P61169-2): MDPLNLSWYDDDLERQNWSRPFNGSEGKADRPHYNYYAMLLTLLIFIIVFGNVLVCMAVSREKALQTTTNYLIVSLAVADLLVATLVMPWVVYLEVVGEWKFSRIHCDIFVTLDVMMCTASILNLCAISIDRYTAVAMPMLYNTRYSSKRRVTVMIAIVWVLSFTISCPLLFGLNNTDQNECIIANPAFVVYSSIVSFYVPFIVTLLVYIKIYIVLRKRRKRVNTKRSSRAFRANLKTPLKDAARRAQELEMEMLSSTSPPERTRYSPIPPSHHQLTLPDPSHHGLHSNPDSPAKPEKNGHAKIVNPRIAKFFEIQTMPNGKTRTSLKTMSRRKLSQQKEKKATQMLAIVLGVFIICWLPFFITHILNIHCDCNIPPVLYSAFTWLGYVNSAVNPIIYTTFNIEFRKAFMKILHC
T2 sequence (P14842 whole entry): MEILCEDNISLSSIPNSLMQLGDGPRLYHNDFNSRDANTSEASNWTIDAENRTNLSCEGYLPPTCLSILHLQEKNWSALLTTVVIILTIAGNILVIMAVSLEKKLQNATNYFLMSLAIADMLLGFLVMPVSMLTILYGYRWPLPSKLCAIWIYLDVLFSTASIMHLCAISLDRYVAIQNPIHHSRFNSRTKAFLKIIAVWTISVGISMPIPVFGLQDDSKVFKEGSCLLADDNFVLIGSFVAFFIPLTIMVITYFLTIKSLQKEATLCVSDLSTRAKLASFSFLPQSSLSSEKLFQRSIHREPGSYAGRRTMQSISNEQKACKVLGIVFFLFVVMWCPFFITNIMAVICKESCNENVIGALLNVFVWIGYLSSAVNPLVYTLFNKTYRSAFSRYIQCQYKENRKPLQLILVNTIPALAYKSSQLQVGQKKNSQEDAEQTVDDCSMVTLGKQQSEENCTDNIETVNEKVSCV

SMILES	Ki (dopamine D2 receptors) [nM]	Ki [1] [nM]	IC50 [1, 8] [nM]	IC50 [2, 9] [nM]	Ki [2, 10] [nM]	Number of punished crossings /1 min Mean ± SEM (Albino Swiss mice [4]; [12])	Number of punished crossings /1 min Mean ± SEM (Albino Swiss mice [4]; [13])	Number of punished crossings /1 min Mean ± SEM (Albino Swiss mice [4]; [14])	Immobility time (s) Mean ± SEM (Albino Swiss mice [5]; [11]) [s]	Immobility time (s) Mean ± SEM (Albino Swiss mice [5]; [12])	Immobility time (s) Mean ± SEM (Albino Swiss mice [5]; [13])	IC50 (dopamine D2 receptors; [18]) [nM]	melting point [°C]	Ki (dopamine D2 receptors; [19]) [nM]	further results
Cc1ccc(CN2C3CCC2CC(NC(=O)c2ccc4ccccc4n2)C3)cc1 (stereo not drawn) [Compound 12i, N-[8-(4-methylbenzyl)-8-azabicyclo[3.2.1]oct-3β-yl)]-quinoline-2-carboxamide oxalate]	7.4 ± 0.4	43.5 ± 1.3	131 ± 4.4	> 10000	> 10000	3.1 ± 0.3 crossings/1 min	2.3 ± 0.4 crossings/1 min	1.7 ± 0.4; p < 0.05 F(3,35) = 4.2954; p < 0.05 crossings/1 min	132.00 ± 2.93	149.89 ± 12.7 s	219.67 ± 1.43; p < 0.05 F(3,26) = 7.5750; p < 0.001 s	–	–	–	IC50 (dopamine D2 receptors): 37 ± 2.1 nM; Number of crossings/60 min Mean ± SEM (CD-1 mice [3]; [11]): 1573.6 ± 149.3 crossings/60 min; Number of crossings/60 min Mean ± SEM (CD-1 mice [3]; [12]): 2676.0 ± 336.7; p < 0.01 crossings/60 min; Number of crossings/60 min Mean ± SEM (CD-1 mice [3]; [13]): 1135.8 ± 184.3 F(3,34) = 8.8733; p < 0.001 crossings/60 min; decrease of spontaneous locomotor activity (CD-1 mice [3]; 10 mg/kg): about 70%; effect on MK-801-induced hyperlocomotor activity (CD-1 mice [6]; 5 mg/kg and 10 mg/kg i.p.): significantly reduced; Number of crossings/60 min Mean ± SEM (CD-1 mice [6]; [15]): 2432.8 ± 526.6; ns vs. contr p < 0.01 vs. MK crossings/60 min; Number of crossings/60 min Mean ± SEM (CD-1 mice [6]; compound 10 mg/kg i.p. 30 min + MK-801 0.2 mg/kg): 805.4 ± 147.2 ns vs. contr p < 0.0001 vs. MK F(3,30) = 14.206; p < 0.0001 crossings/60 min; Number of crossings/60 min Mean ± SEM (CD-1 mice [7]; [16]): 1771.3 ± 470.4; p < 0.01 vs. amph.; ns vs. contr crossings/60 min; Number of crossings/60 min Mean ± SEM (CD-1 mice [7]; [17]): 2046.2 ± 63.1; p < 0.01 vs. amph.; ns vs. contr F(3,34) = 6.5110; p < 0.01 crossings/60 min; decrease of locomotor hyperactivity vs. respective d-amphetamine group (CD-1 mice [7]): 60–86%
Cc1cccc(CN2C3CCC2CC(NC(=O)c2ccc4ccccc4n2)C3)c1 (stereo not drawn) [Compound 12e]	52.2 ± 3.4	55.3 ± 8.3	166 ± 25	> 10000	> 10000	3.5 ± 0.3 crossings/1 min	2.9 ± 0.3 crossings/1 min	3.8 ± 0.5 F(3,36) = 1.3827; NS crossings/1 min	–	172.14 ± 11.6 s	–	260 ± 16.7	113.8 to 114.7	–	Number of crossings/60 min Mean ± SEM (CD-1 mice [3]; [14]): 1034 ± 255.9 p < 0.05 F(1,18) = 5.4398; p < 0.05 crossings/60 min; effect on spontaneous locomotor activity (CD-1 mice [3]; doses used in hyperlocomotor activity tests): did not change the spontaneous locomotor activity; Immobility time (s) Mean ± SEM (Albino Swiss mice [5]; [14]): 183.33 ± 12.3 F(3,30) = 1.2074; NS s; effect on MK-801-induced hyperlocomotor activity (CD-1 mice [6]; 5 mg/kg, tendency to decrease): did not reach a statistically significant level; Number of crossings/60 min Mean ± SEM (CD-1 mice [6]; compound 0.625 mg/kg i.p. 30 min + MK-801 0.2 mg/kg): 4375.1 ± 583.4; ns, ns crossings/60 min; Number of crossings/60 min Mean ± SEM (CD-1 mice [6]; compound 1.25 mg/kg i.p. 30 min + MK-801 0.2 mg/kg): 4019.3 ± 341.3; ns, ns crossings/60 min; Number of crossings/60 min Mean ± SEM (CD-1 mice [6]; compound 2.5 mg/kg i.p. 30 min + MK-801 0.2 mg/kg): 5440.1 ± 937.3 ns, ns crossings/60 min; Number of crossings/60 min Mean ± SEM (CD-1 mice [6]; [15]): 3580.7 ± 384.9; ns, ns F(5,48) = 2.8885; p < 0.05 crossings/60 min; Number of crossings/60 min Mean ± SEM (CD-1 mice [7]; compound 2.5 mg/kg i.p. + d-amphetamine 2.5 mg/kg s.c.): 2993.0 ± 301.0; p < 0.01 vs. amph.; ns vs. contr crossings/60 min; Number of crossings/60 min Mean ± SEM (CD-1 mice [7]; [16]): 2651.0 ± 512.6; p < 0.01 vs. amph.; ns vs. contr crossings/60 min; Number of crossings/60 min Mean ± SEM (CD-1 mice [7]; [17]): 909.9 ± 11.3; p < 0.0001 vs. amph.; ns vs. contr F(4,42) = 10.584; p < 0.0001 crossings/60 min; decrease of locomotor hyperactivity vs. respective d-amphetamine group (CD-1 mice [7]): 60–86%
C[C@H](N)Cc1ccccc1 [d-amphetamine, reference compound]	–	–	–	–	–	–	–	–	–	–	–	–	–	–	Number of crossings/60 min Mean ± SEM (CD-1 mice [7]; d-amphetamine alone 2.5 mg/kg s.c. 30 min before test): 6819.9 ± 1534.7; p < 0.05 vs. contr crossings/60 min and 6553.1 ± 1214.5; p < 0.001 vs. contr crossings/60 min
CN(C)CCCN1c2ccccc2CCc2ccccc21 [Imipramine, reference compound]	–	–	–	–	–	–	–	–	–	–	170.42 ± 10.9 s	–	–	–	Immobility time (s) Mean ± SEM (Albino Swiss mice [5]; 20 mg/kg i.p. 30 min before test): 77.81 ± 12.2; p < 0.001 F(3,36) = 16.7570; p < 0.0001 s
COc1cc(C(=O)NC2CC3CCC(C2)N3Cc2ccccc2C)nc2ccccc12 (stereo not drawn) [Compound 12d]	–	34 ± 1.7	102 ± 4.9	> 10000	> 10000	3.3 ± 0.3 crossings/1 min	4.8 ± 0.3 crossings/1 min	4.7 ± 0.8 F(3,36) = 3.1652; p < 0.05 crossings/1 min	144.22 ± 14.5	113.44 ± 14.9 s	150.8 ± 11.4 F(3,32) = 5.5680; NS s	> 10000	54.5 to 55.9	> 10000	–
C[C@]12N[C@H](Cc3ccccc31)c1ccccc12 [MK-801, reference compound]	–	–	–	–	–	–	–	–	–	–	–	–	–	–	Number of crossings/60 min Mean ± SEM (CD-1 mice [6]; MK-801 alone 0.2 mg/kg i.p. 15 min before test): 4708.1 ± 522.1; p < 0.01 vs. contr crossings/60 min and 6247.1 ± 1063.8; p < 0.01 vs. contr crossings/60 min and 8757.9 ± 1378; p < 0.00001 vs. contr crossings/60 min and 6329.9 ± 1012.5; p < 0.05 vs. contr crossings/60 min
COc1cc(C(=O)NC2CC3CCC(C2)N3Cc2cccc(C)c2)nc2ccccc12 (stereo not drawn) [Compound 12h]	–	21 ± 2	–	> 10000	> 10000	5.5 ± 0.5; p < 0.001 crossings/1 min	2.9 ± 0.3 F(3,36) = 17.202; p < 0.00001 crossings/1 min	–	134.78 ± 12.9	185.00 ± 15.0 F(3,30) = 3.5680; p < 0.05 s	–	2510 ± 271	116.1 to 118.3	503 ± 54.5	IC50 [1]: 62.8 ± 6.2 nM; Number of punished crossings /1 min Mean ± SEM (Albino Swiss mice [4]; [11]): 5.3 ± 0.3; p < 0.001 crossings/1 min; increase of punished crossings vs. respective control group (Albino Swiss mice [4]; 1.25 and 2.5 mg/kg i.p.): ~60%; Immobility time (s) Mean ± SEM (Albino Swiss mice [5]; 0.625 mg/kg i.p. 30 min before test): 163.29 ± 10.7 s
CN1C(=O)CN=C(c2ccccc2)c2cc(Cl)ccc21 [Diazepam, reference compound]	–	–	–	–	–	–	–	–	–	–	–	–	–	–	Number of punished crossings /1 min Mean ± SEM (Albino Swiss mice [4]; diazepam 1.25 mg/kg, 60 min before test): 5.8 ± 0.3; p < 0.01 crossings/1 min; Number of punished crossings /1 min Mean ± SEM (Albino Swiss mice [4]; diazepam 2.5 mg/kg, 60 min before test): 6.4 ± 0.5; p < 0.01 crossings/1 min; Number of punished crossings /1 min Mean ± SEM (Albino Swiss mice [4]; diazepam 5 mg/kg, 60 min before test): 6.6 ± 0.4; p < 0.05 F(3,36) = 6.455; p < 0.01 crossings/1 min
O=C(NC1CC2CCC(C1)N2Cc1ccccn1)c1ccc2ncccc2c1 (stereo not drawn) [Compound 12n]	> 10000	> 10000	–	–	–	–	–	–	–	–	–	–	193.7 to 194.5	–	IC50 (dopamine D2 receptors): > 10000 nM; IC50 [1]: > 10000 nM; IC50 [2]: > 10000 nM; Ki [2]: > 10000 nM
Nc1ccc(CN2C3CCC2CC(NC(=O)c2ccc4ccccc4c2)C3)cc1 (stereo not drawn) [Compound 19c]	–	–	4040 ± 469	4580 ± 199	1240 ± 54	–	–	–	–	–	–	682 ± 42.7	201.6 to 208.8	136 ± 8.5	Ki ([1]; rat brain tissues, read-out: 5-HT1A Ki [nM] ± SEM): 1340 ± 156 nM
